The nature of assay [1]: In vitro inhibitory activity towards [3H]cocaine binding to rat striatal tissue.
Assay in assay [2]: as above
This is another data set of the same source.

The term IC50 denotes the midpoint of a concentration-inhibition curve. The low end stands for inhibition by little substance, the high end for a need for much substance.

Turning to `COC(=O)C1C2CC[C@H](C[C@@H]1OC(=O)Nc1ccc([N+](=O)[O-])cc1)N2C` (stereo not given in full), in assay [1], the IC50 is 1090 nM.

`COC(=O)[C@H]1[C@@H](OC(=O)c2ccccc2)C[C@@H]2CC[C@H]1N2C` [Cocaine (-)]: in assay [2], the IC50 is 65 nM.

For the compound `COC(=O)C1C2CC[C@H](C[C@@H]1OC(=O)Nc1ccccc1)N2C` (stereo not given in full), the IC50 in assay [1] turned out to be 5600 nM.

With `COC(=O)C1C2CC[C@H](C[C@@H]1OC(=O)Nc1cccc([N+](=O)[O-])c1)N2C` (stereo not given in full), the IC50 in assay [1] came out at 37 nM. This IC50 lies about 150-fold lower than the previous one.

Consider `COC(=O)C1C2CC[C@H](C[C@@H]1OC(=O)Nc1cccc(N)c1)N2C` (stereo not given in full), for which, in assay [1], the concentration for half-maximal inhibition (IC50) was 2070 nM.
